# Measurements from patent US6737383B1, “Herbicidal oxadiazolidines” (priority 1999, dated 2004).
# Columns and labels:
# [1] = tested on: crabgrass; experiment: Test B pre/postemergence crabgrass; assay type: in vivo, Digitaria sanguinalis
# Procedure, shortened: (§1)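 Response is a visual 0-to-10 score relative to untreated plants, where 0 means no effect and 10 means complete control, taken twelve to sixteen days after application. Treatments went onto soil at planting and onto foliage of 1- to 4-leaf plants, using a surfactant-containing non-phytotoxic solvent.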
# [2] = tested on: cocklebur; experiment: Test B pre/postemergence cocklebur; assay type: in vivo, Xanthium strumarium
# Procedure, shortened: as §1
# [3] = tested on: wheat; experiment: Test B pre/postemergence wheat; assay type: in vivo, Triticum aestivum
# Procedure, shortened: as §1
# [4] = tested on: soybean; experiment: Test B pre/postemergence soybean; assay type: in vivo, Glycine max
# Procedure, shortened: as §1
# [5] = tested on: purple nutsedge; experiment: Test B pre/postemergence purple nutsedge; assay type: in vivo, Cyperus rotundus
# Procedure, shortened: as §1
# [6] = tested on: sugar beet; experiment: Test B pre/postemergence sugar beet; assay type: in vivo, Beta vulgaris
# Procedure, shortened: as §1
# [7] = tested on: morningglory; experiment: Test B pre/postemergence morningglory; assay type: in vivo, Ipomoea hederacea
# Procedure, shortened: as §1
# [8] = tested on: wild oat; experiment: Test B pre/postemergence wild oat; assay type: in vivo, Avena fatua
# Procedure, shortened: as §1
# [9] = tested on: velvetleaf; experiment: Test B pre/postemergence velvetleaf; assay type: in vivo, Abutilon theophrasti
# Procedure, shortened: as §1
# [10] = tested on: blackgrass; experiment: Test B pre/postemergence blackgrass; assay type: in vivo, Alopecurus myosuroides
# Procedure, shortened: as §1
# [11] = tested on: rape; experiment: Test B pre/postemergence rape; assay type: in vivo, Brassica napus
# Procedure, shortened: as §1
# [12] = tested on: corn; experiment: Test B pre/postemergence corn; assay type: in vivo, Zea mays
# Procedure, shortened: as §1
# [13] = tested on: bedstraw; experiment: Test B pre/postemergence bedstraw; assay type: in vivo, Galium aparine
# Procedure, shortened: as §1
# [14] = tested on: giant foxtail; experiment: Test B pre/postemergence giant foxtail; assay type: in vivo, Setaria faberii
# Procedure, shortened: as §1
# [15] = tested on: pigweed; experiment: Test B pre/postemergence pigweed; assay type: in vivo, Amaranthus retroflexus
# Procedure, shortened: as §1
# [16] = tested on: surinam grass; experiment: Test B pre/postemergence surinam grass; assay type: in vivo, Brachiaria decumbens
# Procedure, shortened: as §1
# [17] = Postemergence, Rate 62 g/ha, scale of 0 to 10, 0 is no effect, 10 is complete control
# [18] = Postemergence, Rate 125 g/ha, scale 0 to 10, 0 is no effect, 10 is complete control
# [19] = Postemergence, Rate 500 g/ha, scale 0 to 10, 0 is no effect, 10 is complete control
# [20] = Preemergence, Rate 62 g/ha, scale 0 to 10 (0 no effect, 10 complete control)
# [21] = Preemergence, Rate 125 g/ha, scale 0 to 10, 0 is no effect, 10 is complete control
# [22] = Preemergence, Rate 500 g/ha, scale of 0 to 10 where 0 is no effect and 10 is complete control
# [23] = Rate 250 g/ha, Postemergence, scale of 0 to 10 where 0 is no effect and 10 is complete control
structure (smiles),measurement,setting,value
CC(Cl)=CCn1c(=O)on(C(=O)N(c2ccc(Cl)cc2)C(C)C)c1=O [Compound 544],Crabgrass plant response rating,[1]; [17],0
same,Crabgrass plant response rating,[1]; [18],8
same,"Plant response rating, Crabgrass",[1]; [19],9
same,Crabgrass plant response rating,[1]; [20],9
same,Crabgrass plant response rating,[1]; [21],9
same,Crabgrass plant response rating (0 to 10 scale),"[1]; Preemergence, Rate 250 g/ha",10
same,Crabgrass plant response rating,[1]; [22],10
same,"Plant response rating, Crabgrass",[1]; [23],8
same,Cocklebur plant response rating,[2]; [17],3
same,Cocklebur plant response rating,[2]; [18],3
same,"Plant response rating, Cocklebur",[2]; [19],3
same,Cocklebur plant response rating,[2]; [20],0
same,Cocklebur plant response rating (0 to 10 scale),"[2]; Preemergence, Rate 250 g/ha",0
same,Cocklebur plant response rating,[2]; [22],0
same,"Plant response rating, Cocklebur",[2]; [23],3
same,Wheat plant response rating,[3]; [17],0
same,Wheat plant response rating,[3]; [18],0
same,"Plant response rating, Wheat",[3]; [19],0
same,Wheat plant response rating,[3]; [20],0
same,Wheat plant response rating,[3]; [21],0
same,Wheat plant response rating (0 to 10 scale),"[3]; Preemergence, Rate 250 g/ha",0
same,Wheat plant response rating,[3]; [22],0
same,"Plant response rating, Wheat",[3]; [23],0
same,Soybean plant response rating,[4]; [17],0
same,Soybean plant response rating,[4]; [18],2
same,"Plant response rating, Soybean",[4]; [19],2
same,Soybean plant response rating,[4]; [20],0
same,Soybean plant response rating,[4]; [21],0
same,Soybean plant response rating (0 to 10 scale),"[4]; Preemergence, Rate 250 g/ha",0
same,Soybean plant response rating,[4]; [22],0
same,"Plant response rating, Soybean",[4]; [23],0
same,Nutsedge plant response rating,[5]; [17],0
same,Nutsedge plant response rating,[5]; [18],0
same,"Plant response rating, Nutsedge",[5]; [19],0
same,Nutsedge plant response rating,[5]; [20],0
same,Nutsedge plant response rating,[5]; [21],0
same,Nutsedge plant response rating (0 to 10 scale),"[5]; Preemergence, Rate 250 g/ha",0
same,Nutsedge plant response rating,[5]; [22],0
same,"Plant response rating, Nutsedge",[5]; [23],0
same,Sugarbeets plant response rating,[6]; [17],0
same,Sugarbeets plant response rating,[6]; [18],0
same,"Plant response rating, Sugarbeets",[6]; [19],3
same,Sugarbeets plant response rating,[6]; [20],0
same,Sugarbeets plant response rating,[6]; [21],0
same,Sugarbeets plant response rating (0 to 10 scale),"[6]; Preemergence, Rate 250 g/ha",0
same,Sugarbeets plant response rating,[6]; [22],4
same,"Plant response rating, Sugarbeets",[6]; [23],1
same,Morningglory plant response rating,[7]; [17],3
same,Morningglory plant response rating,[7]; [18],4
same,"Plant response rating, Morningglory",[7]; [19],10
same,Morningglory plant response rating,[7]; [20],0
same,Morningglory plant response rating,[7]; [21],0
same,Morningglory plant response rating (0 to 10 scale),"[7]; Preemergence, Rate 250 g/ha",0
same,Morningglory plant response rating,[7]; [22],0
same,"Plant response rating, Morningglory",[7]; [23],10
same,Wild oats plant response rating,[8]; [17],0
same,Wild oats plant response rating,[8]; [18],0
same,"Plant response rating, Wild oats",[8]; [19],2
same,Wild oats plant response rating,[8]; [20],0
same,Wild oats plant response rating,[8]; [21],0
same,Wild oats plant response rating (0 to 10 scale),"[8]; Preemergence, Rate 250 g/ha",2
same,Wild oats plant response rating,[8]; [22],4
same,"Plant response rating, Wild oats",[8]; [23],0
same,Velvetleaf plant response rating,[9]; [17],0
same,Velvetleaf plant response rating,[9]; [18],0
same,"Plant response rating, Velvetleaf",[9]; [19],0
same,Velvetleaf plant response rating,[9]; [20],0
same,Velvetleaf plant response rating,[9]; [21],0
same,Velvetleaf plant response rating (0 to 10 scale),"[9]; Preemergence, Rate 250 g/ha",0
same,Velvetleaf plant response rating,[9]; [22],0
same,"Plant response rating, Velvetleaf",[9]; [23],0
same,Blackgrass plant response rating,[10]; [17],0
same,Blackgrass plant response rating,[10]; [18],0
same,"Plant response rating, Blackgrass",[10]; [19],3
same,Blackgrass plant response rating,[10]; [20],0
same,Blackgrass plant response rating,[10]; [21],0
same,Blackgrass plant response rating (0 to 10 scale),"[10]; Preemergence, Rate 250 g/ha",2
same,Blackgrass plant response rating,[10]; [22],6
same,"Plant response rating, Blackgrass",[10]; [23],0
same,Rape plant response rating,[11]; [17],0
same,Rape plant response rating,[11]; [18],2
same,"Plant response rating, Rape",[11]; [19],3
same,Rape plant response rating,[11]; [20],0
same,Rape plant response rating,[11]; [21],0
same,Rape plant response rating (0 to 10 scale),"[11]; Preemergence, Rate 250 g/ha",3
same,Rape plant response rating,[11]; [22],6
same,"Plant response rating, Rape",[11]; [23],2
same,Corn plant response rating,[12]; [17],0
same,Corn plant response rating,[12]; [18],0
same,"Plant response rating, Corn",[12]; [19],0
same,Corn plant response rating,[12]; [20],0
same,Corn plant response rating,[12]; [21],0
same,Corn plant response rating (0 to 10 scale),"[12]; Preemergence, Rate 250 g/ha",0
same,Corn plant response rating,[12]; [22],0
same,"Plant response rating, Corn",[12]; [23],0
same,Bedstraw plant response rating,[13]; [17],0
same,Bedstraw plant response rating,[13]; [18],2
same,"Plant response rating, Bedstraw",[13]; [19],3
same,Bedstraw plant response rating,[13]; [20],0
same,Bedstraw plant response rating,[13]; [21],2
same,Bedstraw plant response rating (0 to 10 scale),"[13]; Preemergence, Rate 250 g/ha",7
same,Bedstraw plant response rating,[13]; [22],9
same,"Plant response rating, Bedstraw",[13]; [23],2
same,Giant foxtail plant response rating,[14]; [17],0
same,Giant foxtail plant response rating,[14]; [18],0
same,Giant foxtail plant response rating,[14]; [20],9
same,Giant foxtail plant response rating,[14]; [21],10
same,Giant foxtail plant response rating (0 to 10 scale),"[14]; Preemergence, Rate 250 g/ha",10
same,Giant foxtail plant response rating,[14]; [22],10
same,"Plant response rating, Giant foxtail",[14]; [23],6
same,Redroot pigweed plant response rating,[15]; [17],0
same,Redroot pigweed plant response rating,[15]; [18],0
same,"Plant response rating, Redroot pigweed",[15]; [19],2
same,Redroot pigweed plant response rating,[15]; [20],3
same,Redroot pigweed plant response rating,[15]; [21],3
same,Redroot pigweed plant response rating (0 to 10 scale),"[15]; Preemergence, Rate 250 g/ha",3
same,Redroot pigweed plant response rating,[15]; [22],10
same,"Plant response rating, Redroot pigweed",[15]; [23],0
same,B. signalgrass plant response rating,[16]; [17],0
same,B. signalgrass plant response rating,[16]; [18],0
same,"Plant response rating, B. signalgrass",[16]; [19],3
same,B. signalgrass plant response rating,[16]; [20],3
same,B. signalgrass plant response rating,[16]; [21],3
same,"B. signalgrass plant response rating (0 to 10 scale, 0 is no effect, 10 is complete control)","[16]; Preemergence, Rate 250 g/ha",6
same,B. signalgrass plant response rating,[16]; [22],8
same,"Plant response rating, B. signalgrass",[16]; [23],0
